Measurements: ChEMBL document CHEMBL1201862, “PubChem BioAssay data set” (2004)
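1) Cells in 96-well plates. 2) Compound, 48 h, 5 concentrations. 3) Linear interpolation between surrounding doses. 4) Unreached endpoint = highest concentration. The concentration for 50% growth inhibition is given as GI50.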 Activity calls are given as the source filed them. Rule as the data show it: active = GI50 up to about 1.1 µM and inactive = higher.

Experiments:
Assay in all cases: NCI anticancer screen, dose series, 48 h
SNB-19 = test system: SNB-19
HOP-92 = test system: HOP-92
SK-MEL-5 = test system: SK-MEL-5
U-251 = test system: U-251
SK-MEL-28 = test system: SK-MEL-28
NCI-H226 = test system: NCI-H226
SF-539 = test system: SF-539
HOP-18 = test system: HOP-18
SF-295 = test system: SF-295
A498 = test system: A498
M14 = test system: M14
OVCAR-8 = test system: OVCAR-8
TK-10 = test system: TK-10
HL-60 = test system: HL-60
RXF 631 = test system: RXF 631
UACC-257 = test system: UACC-257
A549 = test system: A549
OVCAR-5 = test system: OVCAR-5
RPMI-8226 = test system: RPMI-8226
DLD-1 = test system: DLD-1
EKVX = test system: EKVX
OVCAR-3 = test system: OVCAR-3
NCI-H460 = test system: NCI-H460
UO-31 = test system: UO-31
K562 = test system: K562
COLO 205 = test system: COLO 205
ACHN = test system: ACHN
786-0 = test system: 786-0
HCT-15 = test system: HCT-15
Malme-3M = test system: Malme-3M
LXFL 529 = test system: LXFL 529
HOP-62 = test system: HOP-62
SNB-75 = test system: SNB-75
IGROV-1 = test system: IGROV-1
KM-20L2 = test system: KM-20L2
M19-MEL = test system: M19-MEL
UACC-62 = test system: UACC-62
LOX IMVI = test system: LOX IMVI
OVCAR-4 = test system: OVCAR-4
HCT-116 = test system: HCT-116
KM12 = test system: KM12
SNB-78 = test system: SNB-78
DMS-273 = test system: DMS-273
CAKI-1 = test system: CAKI-1
CCRF-CEM = test system: CCRF-CEM
SN12C = test system: SN12C
SF-268 = test system: SF-268
MOLT-4 = test system: MOLT-4
RXF 393 = test system: RXF 393
HT-29 = test system: HT-29
DMS-114 = test system: DMS-114
SW-620 = test system: SW-620
NCI-H522 = test system: NCI-H522

Q: Which GI50 (SNB-19) does the source give for `CCN(CC)CCOC(=O)/C(=C/c1ccc(OC)cc1)c1cc(OC)c(OC)c(OC)c1` here?
A: 13.4 µM (inactive)

Q: And the GI50 (HOP-92)?
A: 3.27 µM (inactive)

Q: What about the GI50 (SK-MEL-5) of the same compound?
A: 3.26 µM (inactive)

Q: And the GI50 (U-251)?
A: 4.06 µM (inactive)

Q: And the GI50 (SK-MEL-28)?
A: 6.08 µM (inactive)

Q: And the GI50 (NCI-H226)?
A: 13.5 µM (inactive)

Q: What about the GI50 (SF-539) of the same compound?
A: 3.28 µM (inactive)

Q: What about the GI50 (HOP-18) of the same compound?
A: 30.4 µM (inactive)

Q: And the GI50 (SF-295)?
A: 1.83 µM (inactive)

Q: And the GI50 (A498)?
A: 2.48 µM (inactive)

Q: What about the GI50 (M14) of the same compound?
A: 6.43 µM (inactive)

Q: What about the GI50 (OVCAR-8) of the same compound?
A: 15.5 µM (inactive)

Q: And the GI50 (TK-10)?
A: 20.3 µM (inactive)

Q: What about the GI50 (HL-60) of the same compound?
A: 3.3 µM (inactive)

Q: And the GI50 (RXF 631)?
A: 7.66 µM (inactive)

Q: What about the GI50 (UACC-257) of the same compound?
A: 5.46 µM (inactive)

Q: What about the GI50 (A549) of the same compound?
A: 5.56 µM (inactive)

Q: And the GI50 (OVCAR-5)?
A: 16.4 µM (inactive)

Q: And the GI50 (RPMI-8226)?
A: 16 µM (inactive)

Q: And the GI50 (DLD-1)?
A: 28.1 µM (inactive)

Q: And the GI50 (EKVX)?
A: 31.5 µM (inactive)

Q: And the GI50 (OVCAR-3)?
A: 4.95 µM (inactive)

Q: And the GI50 (NCI-H460)?
A: 9.66 µM (inactive)

Q: What about the GI50 (UO-31) of the same compound?
A: 5.13 µM (inactive)

Q: What about the GI50 (K562) of the same compound?
A: 3.29 µM (inactive)

Q: What about the GI50 (COLO 205) of the same compound?
A: 5.75 µM (inactive)

Q: What about the GI50 (ACHN) of the same compound?
A: 7.67 µM (inactive)

Q: And the GI50 (786-0)?
A: 7.64 µM (inactive)

Q: What about the GI50 (HCT-15) of the same compound?
A: 4.82 µM

Q: And the GI50 (Malme-3M)?
A: 10.1 µM (inactive)

Q: And the GI50 (LXFL 529)?
A: 5.45 µM (inactive)

Q: What about the GI50 (HOP-62) of the same compound?
A: 3.8 µM (inactive)

Q: And the GI50 (SNB-75)?
A: 0.91 µM (active)

Q: What about the GI50 (IGROV-1) of the same compound?
A: 6.01 µM (inactive)

Q: What about the GI50 (KM-20L2) of the same compound?
A: 11.9 µM (inactive)

Q: And the GI50 (M19-MEL)?
A: 7.26 µM (inactive)

Q: What about the GI50 (UACC-62) of the same compound?
A: 3.71 µM (inactive)

Q: And the GI50 (LOX IMVI)?
A: 5.08 µM (inactive)

Q: What about the GI50 (OVCAR-4) of the same compound?
A: 31.4 µM (inactive)

Q: What about the GI50 (HCT-116) of the same compound?
A: 5.45 µM (inactive)

Q: What about the GI50 (KM12) of the same compound?
A: 3.77 µM (inactive)

Q: And the GI50 (SNB-78)?
A: 9.98 µM (inactive)

Q: What about the GI50 (DMS-273) of the same compound?
A: 4.29 µM (inactive)

Q: What about the GI50 (CAKI-1) of the same compound?
A: 4.42 µM (inactive)

Q: What about the GI50 (CCRF-CEM) of the same compound?
A: 18.8 µM (inactive)

Q: And the GI50 (SN12C)?
A: 16.1 µM (inactive)

Q: And the GI50 (SF-268)?
A: 5.45 µM (inactive)

Q: What about the GI50 (MOLT-4) of the same compound?
A: 24.5 µM (inactive)

Q: What about the GI50 (RXF 393) of the same compound?
A: 2.15 µM (inactive)

Q: And the GI50 (HT-29)?
A: 1.92 µM (inactive)

Q: And the GI50 (DMS-114)?
A: 4.81 µM (inactive)

Q: And the GI50 (SW-620)?
A: 4.18 µM (inactive)

Q: And the GI50 (NCI-H522)?
A: 2.75 µM (inactive)
